Results: patent publication US12441691B2 (Cytokinetics, Inc., priority 2020, dated 2025)

What follows are compounds tested on rabbit skeletal myofibrils (fast skeletal myofibrils) (assay: Activation of fast skeletal myofibrils (PUMA assay, AC1.4)). Conditions: calcium at pCa25, AC1.4 = concentration at which the compound increased the enzymatic activity.
Assay type: biochemical
Description: Preparation of fast skeletal myofibrils: Rabbit skeletal myofibrils were prepared based upon the method of Herrmann et al. (Biochem. 32(28):7255-7263(1993). Myofibrils were prepared from rabbit psoas muscle purchased from Pel-Freez Biologicals (Arkansas) within 2 days of ordering, stored on ice. Minced muscle was homogenized in 10 volumes of ice-cold “standard” buffer (50 mM Tris, pH 7.4, 0.1 M KOAc, 5 mM KCl, 2 mM dithiothreitol (DTT), 0.2 mM phenylmethylsulfonyl fluoride (PMSF), 10 μM leupeptin, 5 μM pepstatin, and 0.5 mM sodium azide) containing 5 mM ethylenediaminetetraacetic acid (EDTA) and 0.5% Triton X-100 using an Omni-Macro homogenizer. Myofibrils were recovered by low speed centrifugation (3000 rpm for 10 minutes) and washed 2 times in the Triton X-100 containing buffer to ensure removal of cellular membrane. Following the Triton washes, myofibrils were washed 3 times in “standard” buffer containing 2 mM magnesium acetate. A final wash in assay buffer (12 mM piperazine-1,4-bis(2-ethanesulfonic acid) (PIPES), pH 6.8, 60 mM KCl, 1 mM DTT) was performed and brought to 10% sucrose for flash freezing in liquid nitrogen and storage at −80° C.
Activation of Fast Skeletal Myofibrils: Fast fiber activators were identified by measuring the enzymatic activity of muscle myofibril preparations using the proprietary PUMA (trademark) (see, e.g., U.S. Pat. Nos. 6,410,254, 6,743,599, 7,202,051, and 7,378,254) assay system. Myofibril preparations consisted of rabbit skeletal muscle (approximately 90% fast fibers) that had been mechanically homogenized and washed with a detergent (Triton X-100) to remove cellular membranes. This preparation retained all of the sarcomeric components in a native conformation and the enzymatic activity was still regulated by calcium. Compounds were tested using a myofibril suspension and a level of calcium sufficient to increase enzymatic activity of the myofibrils to 25% of their maximal rate (termed pCa25). Enzymatic activity was tracked via a pyruvate kinase and lactate dehydrogenase-coupled enzyme system. This assay regenerates myosin-produced ADP into ATP by oxidizing NADH, producing an absorbance change at 340 nm. The buffering system was 12 mM PIPES, 2 mM MgCl2, 1 mM DTT at pH 6.8 (PM12 buffer). […] In Table 9, “Example Compound” refers to the compound labeled with the same number in Table 2.

Row | SMILES | AC1.4
1 | CC[C@H](C)[C@H]1C(=O)Nc2ccccc2CN1C(=O)NCc1cncn1C [Compound 214, (S)-3-((S)-sec-butyl)-N-((1-methyl-1H-imidazol-5-yl)methyl)-2-oxo-1,2,3,5-tetrahydro-4H-benzo[e][1,4]diazepine-4-carboxamide] | 1.72 µM
2 | CC[C@H](C)[C@H]1C(=O)Nc2cncc(F)c2CN1C(=O)CO [Compound 362, (S)-3-((S)-sec-butyl)-6-fluoro-4-(2-hydroxyacetyl)-1,3,4,5-tetrahydro-2H-pyrido[3,4-e][1,4]diazepin-2-one] | 1.68 µM
3 | CC[C@H](C)[C@H]1C(=O)Nc2ccccc2CN1C(=O)N1CCC(N(C)C(C)=O)C1 (stereo partly drawn) [Compound 242, N-(1-((S)-3-((S)-sec-butyl)-2-oxo-2,3,4,5-tetrahydro-1H-benzo[e][1,4]diazepine-4-carbonyl)pyrrolidin-3-yl)-N-methylacetamide] | 4.30 µM
4 | CC[C@H](C)[C@H]1C(=O)Nc2ccccc2CN1C(=O)c1cnccn1 [Compound 108, (S)-3-((S)-sec-butyl)-4-(pyrazine-2-carbonyl)-1,3,4,5-tetrahydro-2H-benzo[e][1,4]diazepin-2-one] | 0.19 µM
5 | CC[C@H](C)[C@H]1C(=O)Nc2ccc(F)cc2CN1C(C)=O [Compound 69, (S)-4-acetyl-3-((S)-sec-butyl)-7-fluoro-1,3,4,5-tetrahydro-2H-benzo[e][1,4]diazepin-2-one] | 0.72 µM
6 | CC[C@H](C)[C@H]1C(=O)Nc2ccccc2CN1C(=O)N1C2COCC1C2 [Compound 272, (3S)-4-(3-oxa-6-azabicyclo[3.1.1]heptane-6-carbonyl)-3-((S)-sec-butyl)-1,3,4,5-tetrahydro-2H-benzo[e][1,4]diazepin-2-one] | 2.62 µM
7 | CC[C@H](C)[C@H]1C(=O)Nc2ccccc2CN1CCO [Compound 62, (S)-3-((S)-sec-Butyl)-4-(2-hydroxyethyl)-1,3,4,5-tetrahydro-2H-benzo[e][1,4]diazepin-2-one] | 2.25 µM
8 | CC[C@H](C)[C@H]1C(=O)Nc2ccccc2-c2cnc(O)n21 [Compound 14, (S)-5-((S)-sec-Butyl)-3-hydroxy-5H-benzo[f]imidazo[1,5-d][1,4]diazepin-6(7H)-one] | 0.15 µM
9 | CC[C@H](C)[C@H]1C(=O)Nc2ccccc2CN1C(=O)N[C@H]1CCNC1 [Compound 308, (S)-3-((S)-sec-butyl)-2-oxo-N-((S)-pyrrolidin-3-yl)-1,2,3,5-tetrahydro-4H-benzo[e][1,4]diazepine-4-carboxamide] | 0.32 µM
10 | CC[C@H](C)[C@H]1C(=O)Nc2ccccc2CN1C(=O)N[C@H](C(N)=O)c1ccccc1 [Compound 287, (S)-N-((S)-2-amino-2-oxo-1-phenylethyl)-3-((S)-sec-butyl)-2-oxo-1,2,3,5-tetrahydro-4H-benzo[e][1,4]diazepine-4-carboxamide] | 0.35 µM
11 | CC(=O)N1Cc2ccccc2NC(=O)[C@@H]1C(C)C [Compound 326, (S)-4-acetyl-3-isopropyl-1,3,4,5-tetrahydro-2H-benzo[e][1,4]diazepin-2-one] | 4.38 µM
12 | CC[C@H](C)[C@H]1C(=O)Nc2ccccc2CN1C(=O)Nc1cnc2[nH]ncc2c1 [Compound 278, (S)-3-((S)-sec-butyl)-2-oxo-N-(1H-pyrazolo[3,4-b]pyridin-5-yl)-1,2,3,5-tetrahydro-4H-benzo[e][1,4]diazepine-4-carboxamide] | 0.05 µM
13 | CC[C@H](C)[C@H]1C(=O)Nc2cc(F)ccc2CN1C(N)=O [Compound 75, (S)-3-((S)-sec-butyl)-8-fluoro-2-oxo-1,2,3,5-tetrahydro-4H-benzo[e][1,4]diazepine-4-carboxamide] | 0.13 µM
14 | CC[C@H](C)[C@H]1C(=O)Nc2ccccc2CN1C(=O)CS(C)(=O)=O [Compound 111, (S)-3-((S)-sec-butyl)-4-(2-(methylsulfonyl)acetyl)-1,3,4,5-tetrahydro-2H-benzo[e][1,4]diazepin-2-one] | 4.90 µM
15 | O=C1Nc2ccccc2CN(C(=O)c2ccco2)[C@H]1C1CCCCC1 [Compound 128, (S)-3-cyclohexyl-4-(furan-2-carbonyl)-1,3,4,5-tetrahydro-2H-benzo[e][1,4]diazepin-2-one] | 0.06 µM
16 | CC[C@H](C)[C@H]1C(=O)Nc2ccccc2CN1C(=O)N[C@@H]1CCCNC1=O [Compound 217, (S)-3-((S)-sec-butyl)-2-oxo-N-((R)-2-oxopiperidin-3-yl)-1,2,3,5-tetrahydro-4H-benzo[e][1,4]diazepine-4-carboxamide] | 2.45 µM
17 | CC[C@H](C)[C@H]1C(=O)Nc2ccccc2CN1c1nccc(=O)[nH]1 [Compound 3, (S)-3-((S)-sec-Butyl)-4-(6-oxo-1,6-dihydropyrimidin-2-yl)-1,3,4,5-tetrahydro-2H-benzo[e][1,4]diazepin-2-one] | 0.09 µM
18 | CC[C@H](C)[C@H]1C(=O)Nc2ccccc2CN1C(=O)c1c[nH]c(=O)[nH]1 [Compound 95, (S)-3-((S)-sec-butyl)-4-(2-oxo-2,3-dihydro-1H-imidazole-4-carbonyl)-1,3,4,5-tetrahydro-2H-benzo[e][1,4]diazepin-2-one] | 0.04 µM
19 | CC[C@H](C)[C@H]1C(=O)Nc2ccccc2CN1C(=O)CC(C)(C)O [Compound 149] | 2.08 µM
20 | CC[C@H](C)[C@H]1C(=O)Nc2ccccc2CN1C(=O)C1CCC(=O)N1 (stereo partly drawn) [Compound 161, (3S)-3-((S)-sec-butyl)-4-(5-oxopyrrolidine-2-carbonyl)-1,3,4,5-tetrahydro-2H-benzo[e][1,4]diazepin-2-one] | 2.25 µM
21 | CC[C@H](C)[C@H]1C(=O)Nc2ccccc2CN1S(=O)(=O)CCOC [Compound 119, (S)-3-((S)-sec-butyl)-4-((2-methoxyethyl)sulfonyl)-1,3,4,5-tetrahydro-2H-benzo[e][1,4]diazepin-2-one] | 2.44 µM
22 | CC[C@H](C)[C@H]1C(=O)Nc2ccccc2CN1C(=O)NC[C@H]1CCC(=O)N1 [Compound 215, (S)-3-((S)-sec-butyl)-2-oxo-N-(((R)-5-oxopyrrolidin-2-yl)methyl)-1,2,3,5-tetrahydro-4H-benzo[e][1,4]diazepine-4-carboxamide] | 4.65 µM
23 | CC[C@H](C)[C@H]1C(=O)Nc2ccccc2CN1C(=O)Nc1cc(C(F)(F)F)c[nH]c1=O [Compound 257, (S)-3-((S)-sec-butyl)-2-oxo-N-(2-oxo-5-(trifluoromethyl)-1,2-dihydropyridin-3-yl)-1,2,3,5-tetrahydro-4H-benzo[e][1,4]diazepine-4-carboxamide] | 0.02 µM
24 | CC[C@H](C)[C@H]1C(=O)Nc2ccccc2CN1C(=O)Nc1ccn(C)c(=O)c1 [Compound 291, (S)-3-((S)-sec-butyl)-N-(1-methyl-2-oxo-1,2-dihydropyridin-4-yl)-2-oxo-1,2,3,5-tetrahydro-4H-benzo[e][1,4]diazepine-4-carboxamide] | 0.05 µM
25 | CC[C@H](C)[C@H]1C(=O)Nc2ccccc2CN1C(=O)N1CC(N2CCCC2)C1 [Compound 264, (S)-3-((S)-sec-butyl)-4-(3-(pyrrolidin-1-yl)azetidine-1-carbonyl)-1,3,4,5-tetrahydro-2H-benzo[e][1,4]diazepin-2-one] | 0.84 µM
26 | CC[C@H](C)[C@H]1C(=O)Nc2ccccc2CN1C(=O)C(C)(C)C(N)=O [Compound 147, 3-((S)-3-((S)-sec-butyl)-2-oxo-1,2,3,5-tetrahydro-4H-benzo[e][1,4]diazepin-4-yl)-2,2-dimethyl-3-oxopropanamide] | 2.57 µM
27 | CC[C@H](C)[C@H]1C(=O)Nc2ccccc2CN1CCC(N)=O [Compound 312, 3-((S)-3-((S)-sec-butyl)-2-oxo-1,2,3,5-tetrahydro-4H-benzo[e][1,4]diazepin-4-yl)propanamide] | 1.22 µM
28 | CC[C@H](C)[C@H]1C(=O)Nc2ccccc2CN1C(=O)N1CCC2(CC1)CNC(=O)C2 [Compound 245, (S)-3-((S)-sec-butyl)-4-(3-oxo-2,8-diazaspiro[4.5]decane-8-carbonyl)-1,3,4,5-tetrahydro-2H-benzo[e][1,4]diazepin-2-one] | 3.88 µM
29 | CC[C@H](C)[C@H]1C(=O)Nc2ccccc2CN1C(=O)NC1CCS(=O)(=O)C1 (stereo partly drawn) [Compound 224, (3S)-3-((S)-sec-butyl)-N-(1,1-dioxoidotetrahydrothiophen-3-yl)-2-oxo-1,2,3,5-tetrahydro-4H-benzo[e][1,4]diazepine-4-carboxamide] | 2.85 µM
30 | CC[C@H](C)[C@H]1C(=O)Nc2ccccc2CN1C(=O)N1CCC[C@@H](CO)C1 [Compound 302, (S)-3-((S)-sec-butyl)-4-((R)-3-(hydroxymethyl)piperidine-1-carbonyl)-1,3,4,5-tetrahydro-2H-benzo[e][1,4]diazepin-2-one] | 0.82 µM
